From patent US11541068B2, “HMO compositions and methods for reducing autism spectrum disorder symptoms” (Glycom A/S, priority 2017, dated 2023)

Assays:
clostridia = conditions: children with regressive autism; 6-week oral course; cited from earlier work
faecal microbiota = assay: M-SHIME (M-TripleSHIME) in vitro gastrointestinal model: microbiota and bacterial metabolites; type: cell-based, human (healthy adult); conditions: proximal (PC) and distal (DC) colon reactor; means of three weekly samples
From the text: The impact of the HMOs on microbiota and bacterial metabolites was investigated in the M-SHIME® (M-TripleSHIME®) in vitro gastrointestinal model (Prodigest). The typical reactor setup of the M-TripleSHIME® consisted of a succession of four reactors simulating the different parts of the human gastrointestinal tract. The first two reactors were of the fill-and-draw principle to simulate different steps in food uptake and digestion, with peristaltic pumps adding a defined amount of SHIME feed (140 mL 3×/day) and pancreatic and bile liquid (60 ml 3×/day), respectively, to the stomach and small intestine compartment and emptying the respective reactors after specified intervals. The last two compartments were continuously stirred reactors with constant volume and pH control. […]
The M-TripleSHIME® was run in four stages: • 1. […] The baseline microbial community composition and activity in the different reactors was determined by analysis of samples and was used as a reference. • 3. […]
Sample of the liquids in each reactor were collected regularly (three times in a week, on day 1, day 3 and day 5) and were analysed for microbial metabolites and the composition of the resident microbial community. In particular, the bifidobacteria composition was analysed using ITS profiling.

Row | Structure (SMILES) | children with significant improvement in neurobehavioral symptoms (clostridia) | gastrointestinal symptoms (clostridia) | effect on branched SCFA and ammonia production, compared with 2′-FL (FIG. 1) (faecal microbiota)
1 | CN[C@H](CC(C)C)C(=O)N[C@H]1C(=O)N[C@@H](CC(N)=O)C(=O)N[C@H]2C(=O)N[C@H]3C(=O)N[C@H](C(=O)N[C@H](C(=O)O)c4cc(O)cc(O)c4-c4cc3ccc4O)[C@H](O)c3ccc(c(Cl)c3)Oc3cc2cc(c3O[C@@H]2O[C@H](CO)[C@@H](O)[C@H](O)[C@H]2O[C@H]2C[C@](C)(N)[C@H](O)[C@H](C)O2)Oc2ccc(cc2Cl)[C@H]1O [vancomycin] | eight of the ten children | improvement | 
2 | CC(=O)N[C@H]1[C@H](O[C@H]2[C@@H](O)[C@@H](CO)O[C@@H](O[C@H]3[C@H](O)[C@@H](O)C(O)O[C@@H]3CO)[C@@H]2O)O[C@H](CO)[C@@H](O[C@@H]2O[C@H](CO)[C@H](O)[C@H](O)[C@H]2O)[C@@H]1O (mixture of isomers) [LNnT, lacto-N-neotetraose] |  |  | similar
